Reference: US8753691B2, “Antiviral colloidal silver composition” (priority 1999, dated 2014)
≈ marks a conversion by molar mass, not a printed value. Where “and” joins values, the source holds several entries; their conditions need not be identical. Equal values may be shown once. Read-outs that look alike come from different tables or passages of the source.

Experiments:
[1] = test system: S gordonii; assay: MIC/MBC broth microdilution; assay type: cell-based; settings: for MIC: read-out: MIC (minimum inhibitory concentration)
[2] = test system: S arizona; assay: MIC/MBC broth microdilution; assay type: cell-based; settings: for MBC: read-out: MBC (minimum bactericidal concentration); for MIC: read-out: MIC (minimum inhibitory concentration)
[3] = test system: S. boydii; assay: MIC/MBC broth microdilution; assay type: cell-based; settings: for MBC: read-out: MBC (minimum bactericidal concentration)
[4] = test system: S. pyogenes; assay: MIC/MBC broth microdilution; assay type: cell-based
[5] = test system: S. mutans; assay: MIC/MBC broth microdilution; assay type: cell-based
[6] = test system: S. pneumoniae; assay: MIC/MBC broth microdilution; assay type: cell-based
[7] = test system: S. faecalis; assay: MIC/MBC broth microdilution; assay type: cell-based
[8] = test system: S. aureus; assay: MIC/MBC broth microdilution; assay type: cell-based
[9] = test system: P. aeruginosa; assay: MIC/MBC broth microdilution; assay type: cell-based
[10] = test system: E. coli; assay: MIC/MBC broth microdilution; assay type: cell-based
[11] = test system: E. aerogenes; assay: MIC/MBC broth microdilution; assay type: cell-based
[12] = test system: E. cloacae; assay: MIC/MBC broth microdilution; assay type: cell-based
[13] = test system: S. typhimurium; assay: MIC/MBC broth microdilution; assay type: cell-based; settings: for MBC: read-out: MBC (minimum bactericidal concentration)
[14] = test system: K. pneumoniae; assay: MIC/MBC broth microdilution; assay type: cell-based
[15] = test system: K. oxytoca; assay: MIC/MBC broth microdilution; assay type: cell-based
[16] = test system: Pseudomonas aeruginosa ATCC #15442
Method: (§1) At 30 second intervals, 0.5 ml of each challenge culture was added to the appropriate dilutions of phenol, agitated, and replaced into the water bath: After the appropriate exposure times of 5, 10, and 15 minutes, a loopful of suspension was removed from the assay tubes and transferred to tubes of letheen broth (LETH).

[17] = test system: Salmonella choleraesuis ATCC #10708; settings: 5, 10 or 15 min
Method: as §1

[18] = test system: Staphylococcus aureus ATCC #6538
Method: as §1

[19] = biological target: Moloney murine leukemia virus reverse transcriptase (MoMuLV) (Moloney murine leukemia virus, UniProt P03355); assay: Test of reverse transcriptase inhibition; settings: 3 μl inhibitor; 37° C. 2 hours; AZT at 0.625 microgram/ml

**Q.** For `CC[C@H]1OC(=O)[C@H](C)[C@@H](O[C@H]2C[C@@](C)(OC)[C@@H](O)[C@H](C)O2)[C@H](C)[C@@H](O[C@@H]2O[C@H](C)C[C@H](N(C)C)[C@H]2O)[C@](C)(O)C[C@@H](C)C(=O)[C@H](C)[C@@H](O)[C@]1(C)O` [Erythromycin], which MIC [1] is on record?
**A.** 0.005 µg/mL (≈ 0.00681 µM)

**Q.** What about the MBC [2] of the same compound?
**A.** > 5 µg/mL

**Q.** And the MBC ([3]; S. boydii)?
**A.** > 5 µg/mL

**Q.** And the MIC ([3]; S. boydii, read-out: MIC (minimum inhibitory concentration))?
**A.** 5 µg/mL (≈ 6.81 µM)

**Q.** `CC1(C)S[C@@H]2[C@H](NC(=O)Cc3ccccc3)C(=O)N2[C@H]1C(=O)O` [Penicillin G] was tested. Which “MIC (minimum inhibitory concentration)” value [4] did it give?
**A.** >5.0 ppm

**Q.** And the “MBC (minimum bactericidal concentration)” value [5]?
**A.** > 5 ppm

**Q.** What about the “MIC (minimum inhibitory concentration)” value [5] of the same compound?
**A.** 0.521 ppm

**Q.** What about the “MBC (minimum bactericidal concentration)” value [1] of the same compound?
**A.** 0.039 ppm

**Q.** What about the “MIC (minimum inhibitory concentration)” value [1] of the same compound?
**A.** 0.009 ppm

**Q.** What about the “MBC (minimum bactericidal concentration)” value [6] of the same compound?
**A.** 0.019/0.019 ppm

**Q.** And the “MIC (minimum inhibitory concentration)” value [6]?
**A.** 0.019/0.019 ppm

**Q.** And the “MBC (minimum bactericidal concentration)” value [7]?
**A.** 5.0/>5.0 ppm

**Q.** What about the “MIC (minimum inhibitory concentration)” value [7] of the same compound?
**A.** 5.0/>5.0 ppm

**Q.** And the “MBC (minimum bactericidal concentration)” value [8]?
**A.** > 5.0 ppm

**Q.** What about the “MIC (minimum inhibitory concentration)” value [8] of the same compound?
**A.** 2.5 ppm

**Q.** And the “MBC (minimum bactericidal concentration)” value [9]?
**A.** > 5.0 ppm

**Q.** What about the “MIC (minimum inhibitory concentration)” value [9] of the same compound?
**A.** 0.13 ppm

**Q.** And the “MIC (minimum inhibitory concentration)” value [10]?
**A.** >5.0 ppm

**Q.** What about the “MIC (minimum inhibitory concentration)” value [11] of the same compound?
**A.** >5.0 ppm

**Q.** What about the “MIC (minimum inhibitory concentration)” value [12] of the same compound?
**A.** >5.0 ppm

**Q.** And the “MIC (minimum inhibitory concentration)” value [13]?
**A.** >5.0 ppm

**Q.** And the “MIC (minimum inhibitory concentration)” value [2]?
**A.** >5.0 ppm

**Q.** And the “MIC (minimum inhibitory concentration)” value [3]?
**A.** >5.0 ppm

**Q.** And the “MIC (minimum inhibitory concentration)” value [14]?
**A.** >5.0 ppm

**Q.** And the “MIC (minimum inhibitory concentration)” value [15]?
**A.** >5.0 ppm

**Q.** `Oc1ccccc1` [phenol] was tested. Which “growth after phenol treatment” value ([16]; 1:80 phenol, 5 or 10 min) did it give?
**A.** showed growth

**Q.** And the “growth after phenol treatment” value ([16]; 1:80 phenol, 15 min)?
**A.** no growth

**Q.** And the “growth after phenol treatment” value ([16]; 1:90 phenol, 5, 10 or 15 min)?
**A.** showed growth

**Q.** What about the “growth after phenol treatment” value ([17]; 1:90 phenol) of the same compound?
**A.** no growth

**Q.** What about the “growth after phenol treatment” value ([17]; 1:100 phenol) of the same compound?
**A.** showed growth

**Q.** And the “growth after phenol treatment” value ([18]; 1:60 phenol, 5 or 10 min)?
**A.** showed growth

**Q.** And the “growth after phenol treatment” value ([18]; 1:60 phenol, 15 min)?
**A.** no growth

**Q.** What about the “growth after phenol treatment” value ([18]; 1:70 phenol, 5, 10 or 15 min) of the same compound?
**A.** showed growth

**Q.** For `CC1COc2c(N3CCN(C)CC3)c(F)cc3c(=O)c(C(=O)O)cn1c23` (stereo not shown) [Ofloxacin], which MBC ([1]; read-out: MBC (minimum bactericidal concentration)) is on record?
**A.** 5 µg/mL (≈ 13.8 µM)

**Q.** What about the MIC [1] of the same compound?
**A.** 2.5 µg/mL (≈ 6.92 µM)

**Q.** What about the MBC ([11]; Klebsiella aerogenes, read-out: MBC (minimum bactericidal concentration)) of the same compound?
**A.** 0.156 µg/mL (≈ 0.432 µM)

**Q.** And the MIC ([11]; Klebsiella aerogenes, read-out: MIC (minimum inhibitory concentration))?
**A.** 0.078 µg/mL (≈ 0.216 µM)

**Q.** And the MBC ([13]; Salmonella enterica)?
**A.** 0.156 µg/mL (≈ 0.432 µM)

**Q.** And the MIC ([13]; Salmonella enterica, read-out: MIC (minimum inhibitory concentration))?
**A.** 0.078 µg/mL (≈ 0.216 µM)

**Q.** And the MIC [2]?
**A.** 0.078 µg/mL (≈ 0.216 µM)

**Q.** And the MBC ([3]; S. boydii)?
**A.** 0.156 µg/mL (≈ 0.432 µM)

**Q.** Which “MBC (minimum bactericidal concentration)” value [4] does the source give for `CCN1CCN(C(=O)N[C@@H](C(=O)N[C@@H]2C(=O)N3C(C(=O)O)=C(CSc4nnnn4C)CS[C@H]23)c2ccc(O)cc2)C(=O)C1=O` [Cefaperazone] here?
**A.** 1.25 ppm

**Q.** And the “MIC (minimum inhibitory concentration)” value [4]?
**A.** 0.313 ppm

**Q.** And the “MBC (minimum bactericidal concentration)” value [5]?
**A.** > 5 ppm

**Q.** What about the “MIC (minimum inhibitory concentration)” value [5] of the same compound?
**A.** 1.25 ppm

**Q.** And the “MBC (minimum bactericidal concentration)” value [1]?
**A.** 1.25/1.25 ppm

**Q.** And the “MIC (minimum inhibitory concentration)” value [1]?
**A.** 1.25/1.25 ppm

**Q.** What about the “MBC (minimum bactericidal concentration)” value [6] of the same compound?
**A.** 0.313/0.313 ppm

**Q.** And the “MIC (minimum inhibitory concentration)” value [6]?
**A.** 0.313/0.313 ppm

**Q.** And the “MIC (minimum inhibitory concentration)” value [7]?
**A.** >5.0 ppm

**Q.** What about the “MBC (minimum bactericidal concentration)” value [8] of the same compound?
**A.** 5.0/5.0 ppm

**Q.** And the “MIC (minimum inhibitory concentration)” value [8]?
**A.** 5.0/5.0 ppm

**Q.** And the “MBC (minimum bactericidal concentration)” value [9]?
**A.** 5.0 ppm

**Q.** And the “MIC (minimum inhibitory concentration)” value [9]?
**A.** 2.5 ppm

**Q.** What about the “MBC (minimum bactericidal concentration)” value [10] of the same compound?
**A.** > 5.0 ppm

**Q.** And the “MIC (minimum inhibitory concentration)” value [10]?
**A.** 0.625 ppm

**Q.** What about the “MBC (minimum bactericidal concentration)” value [11] of the same compound?
**A.** > 5.0 ppm

**Q.** What about the “MIC (minimum inhibitory concentration)” value [11] of the same compound?
**A.** 2.92 ppm

**Q.** And the “MBC (minimum bactericidal concentration)” value [13]?
**A.** 2.5 ppm

**Q.** And the “MIC (minimum inhibitory concentration)” value [13]?
**A.** 1.25 ppm

**Q.** And the “MBC (minimum bactericidal concentration)” value [2]?
**A.** > 5.0 ppm

**Q.** And the “MIC (minimum inhibitory concentration)” value [2]?
**A.** 0.833 ppm

**Q.** And the “MBC (minimum bactericidal concentration)” value ([3]; S. boydii)?
**A.** 0.625/0.625 ppm

**Q.** What about the “MIC (minimum inhibitory concentration)” value ([3]; S. boydii) of the same compound?
**A.** 0.625/0.625 ppm

**Q.** What about the “MIC (minimum inhibitory concentration)” value [14] of the same compound?
**A.** >5.0 ppm

**Q.** And the “MBC (minimum bactericidal concentration)” value [15]?
**A.** > 5.0 ppm

**Q.** What about the “MIC (minimum inhibitory concentration)” value [15] of the same compound?
**A.** 1.25 ppm

**Q.** With `CN(C)[C@@H]1C(O)=C(C(N)=O)C(=O)[C@@]2(O)C(O)=C3C(=O)c4c(O)cccc4[C@@](C)(O)[C@H]3C[C@@H]12` [Tetracycline] as the compound, how does the MBC ([13]; Salmonella enterica) read?
**A.** > 5 µg/mL

**Q.** What about the MBC [2] of the same compound?
**A.** > 5 µg/mL

**Q.** And the MIC [2]?
**A.** 0.625 µg/mL (≈ 1.41 µM)

**Q.** What about the MBC ([3]; S. boydii) of the same compound?
**A.** > 5 µg/mL

**Q.** And the MBC ([15]; Klebsiella oxytoca, read-out: MBC (minimum bactericidal concentration))?
**A.** > 5 µg/mL

**Q.** `Cc1cn([C@H]2C[C@H](N=[N+]=[N-])[C@@H](CO)O2)c(=O)[nH]c1=O` [AZT, zidovudine (AZT)] was tested. Which “% Inhibition (reverse transcriptase)” value [19] did it give?
**A.** 31.33% and 18.06%
